Data set [1] can be described thus: In vivo pharmacokinetic test in mice. Particulars: 30 mg/kg, female BALB/c mice, single dose 30 mg/kg, plasma. Here is the method:
(§1) Each test compound was administered orally once to female BALB/c mice for pharmacokinetic study. The test compounds were prepared on the day of administration. The oral administration solvent: 50 mM sodium citrate (pH 5.0) + 10% captisol. The oral administration was conducted in a dose of 30 mg/kg. The animals were fasted for 10-14 h before oral administration, and the feeding was resumed 4 h after administration. Pharmacokinetic samples were collected through the orbit. The collection time points were: 15 min, 30 min, 1 h, 2 h, 4 h, 6 h, 8 h and 24 h after administration. Three whole blood samples were collected at each time point, with a collection volume of about 0.2 mL, and anticoagulated with sodium heparin. After blood samples were collected, they were immediately placed on ice and centrifuged within 1 h to isolate plasma (centrifugation conditions: 8000 rpm, 1 min, 2-8°C). The collected plasma was stored in a -20°C refrigerator before analysis. The concentrations of compounds in the plasma samples were determined using an LC-MS/MS analysis method.

Data set [2] has as its system human colon cancer GP2D mouse xenograft tumors. The data set is described as follows: In vivo drug efficacy, GP2D subcutaneous xenograft tumor model. On the set-up: species or system Balb/c nude mouse. Conditions: 30 mg/kg, PO; for inhibitory effects on human colon cancer GP2D mouse xenograft tumors: BID, 28 days; for Tumor volume inhibition rate (TGI): GP2D xenograft, BID × 28, day 28. The procedure:
A human colon cancer GP2D cell subcutaneous xenograft tumor Balb/c nude mouse model was established. GP2D tumor cells resuspended in DMEM medium were inoculated subcutaneously on the right side of the experimental animal at 1×10^7 + gel/0.1 mL. When the tumor grew to about 150-200 mm^3, administration in groups began, with 5 animals in each group. On the day of the experiment, the animals were given corresponding drugs according to the groups. The first group G1 was set as a solvent group, and 50 mM citrate buffer (pH 5.0) + 10% Captisol was given by gavage alone. The second group G2 was given a 50 mM citrate buffer (pH 5.0) + 10% Captisol of compound 26. The third group G3 was given a 50 mM citrate buffer (pH 5.0) + 10% Captisol of compound 31. Table 5: Study on effect of test substances on animal tumor size in human colon cancer GP2D mouse xenograft tumor model
(§2) During the experiment, the body weight and tumor size of the animals were measured twice a week, and the clinical symptoms of the animals were observed and recorded every day. Each drug administration was based on the most recent weighing of the animals.
(§3) The tumor was measured with a digital vernier caliper to measure the length (a) and width (b). The tumor volume (TV) was calculated using the following formula: TV = a × b^2 /2. [formula]
(Xenograft models place foreign cells or tissue in a host animal.)

The subject of data set [3] is LoVo (KRAS G13D). The data set is described as follows: 3D cell proliferation inhibition test (CellTiter-Glo 3D, 7 days), LoVo. In kind it is cell-based. Particulars: Homo sapiens, 168 h, read-out: Inhibitory activity on cell proliferation (IC50) LoVo (KRAS G13D). The procedure: The diluted compounds to be tested were added to 384-well low-adhesion KRAS mutant types (such as GP2D, NCI H358, LoVo, RKN and KP2) of cell culture plates by using a nanoliter pipetting system (LABCYTE, P-0200). Then, the cells were plated and incubated in a 37°C, 5% CO2 incubator for 7 days. Afterward, CellTiter-Glo® 3D reagent was added, and the luminescent values were read by an Envision multifunctional microplate reader (the luminescent signal is proportional to the amount of ATP in the system, and the ATP content directly represents the number of viable cells in the system). Finally, the IC50 values (half-maximal inhibitory concentration) of the compounds were obtained by the XLFIT software using the nonlinear fitting formula.
• a) The diluted compounds to be tested were added to 384-well low-adhesion KRAS mutant types of cell culture plates by using a nanoliter pipetting system. • b) Cells were seeded into the 384-well plates in a) and then centrifuged at 1000 rpm for 1 min at room temperature, with a final DMSO concentration of compound being 0.5%. The plates were then incubated in a 5% CO2 constant-temperature incubator at 37°C for 7 days. • c) CellTiter-Glo® 3D was added to the 384-well cell culture plates in b), shaken in the dark, and incubated at room temperature. • d) The luminescence values were read by using an Envision multifunctional microplate reader. […]
In general terms: Cellular ATP, detected with luciferase, serves as a proxy for viable cell number.

Data set [4] can be described thus: In vivo pharmacokinetic test in rats. On the set-up: species or system SD Rats. Conditions: male rats; for F: oral 30 mg/kg vs intravenous; for AUC / Cmax: rat, oral, single dose 30 mg/kg, plasma. The procedure: as §1, with “once to male […] rats” for “once to female BALB/c mice”, “male BALB/c rats for pharmacokinetic” for “female BALB/c mice for pharmacokinetic”, “administration. The intravenous administration solvent: 5% DMSO + 10% solutol + 85% saline; and the oral administration” for “administration. The oral administration”, “points were: 5 min (intravenous administration), 15 min,” for “points were: 15 min,”, “analysis method. Table 4: Pharmacokinetic test results of some compounds in SD Rats” for “analysis method.”

The test system of data set [5] is human ovarian cancer RKN mouse xenograft tumors. The data set is described as follows: In vivo drug efficacy, RKN subcutaneous xenograft tumor model. Also noted: species or system Balb/c nude mice. Particulars: 50 mg/kg, PO; for inhibitory effects on human ovarian cancer RKN mouse xenograft tumors: BID, 28 days; for Tumor volume inhibition rate (TGI): RKN xenograft, BID × 28, day 28. The procedure:
A subcutaneous xenograft tumor model of human ovarian cancer RKN (derived from uterine leiomyosarcoma) cells was established in Balb/c nude mice. RKN tumor cells resuspended in Ham's F12 medium were inoculated subcutaneously on the right side of the experimental animals at 5×10^6 + gel/0.1 mL. When the tumor grew to about 150-200 mm^3, 20 animals having relatively uniform tumor volumes were selected for group administration, with a total of 4 groups, 5 animals in each group. On the day of the experiment, the animals were given the corresponding drugs according to the groups. The first group G1 was set as a solvent group, and 50 mM citrate buffer (pH 5.0) + 10% Captisol was given by gavage alone. The second group G2 was given a 50 mM citrate buffer (pH 5.0) + 10% Captisol of compound 21. The third group G3 was given a 50 mM citrate buffer (pH 5.0) + 10% Captisol of compound 26. The fourth group G4 was given a 50mM citrate buffer (pH 5.0) + 10% Captisol of compound 31. Table 7: Study on effect of test substances on animal tumor size in the human ovarian cancer RKN mouse xenograft tumor model
as §2, §3

In the case of `CC1(O)COCCN(c2nc(OCC34CCCN3C(c3cc(F)c(F)c(F)c3)CC4)nc3c(F)c(-c4cccc5sc(N)c(C#N)c45)c(Br)cc23)C1` (single isomer, unassigned) [Example 26, 2-amino-4-[6-bromo-8-fluoro-4-(6-hydroxy-6-methyl-1,4-oxazepan-4-yl)-2-({[3-(3,4,5-trifluoropheny 1)-2,3,5,6,7,7a-hexahydro-1H-pyrrolizin-7a-yl]methyl}oxy)quinazolin-7-yl]benzo[b]thiophene-3-carb onitrile], the AUC – broadly, concentration integrated over time – in data set [1] (mouse, in vivo, po, read-out: AUC) turned out to be 15800 ng·h/mL. Moreover, the Cmax (in general, the maximum level reached in the sampled fluid or tissue) in data set [1] (mouse, in vivo, po, read-out: Cmax) is 4880 ng/mL. In data set [2], the “inhibitory effects on human colon cancer GP2D mouse xenograft tumors” value was “significant inhibitory effects” and the “Tumor volume inhibition rate (TGI)” value was determined as 72.7%. In addition, the IC50 in data set [3] worked out at 14.2 nM. For the same compound, the F in data set [4] was 22.3%. In data set [4] (in vivo), this compound returned an AUC of 12400 ng·h/mL and a Cmax of 1190 ng/mL. Also, in data set [5], the “inhibitory effects on human ovarian cancer RKN mouse xenograft tumors” value is recorded as “significant inhibitory effects” and the “Tumor volume inhibition rate (TGI)” value is listed as 116%.

In data set [1] (oral), `CC1(O)COCCN(c2nc(OCC34CCCN3C(c3cc(F)c(F)c(F)c3)CC4)nc3c(F)c(-c4cccc5sc(N)c(C#N)c45)c(I)cc23)C1` (single isomer, unassigned) [Example 31, 2-amino-4-[6-iodo-8-fluoro-4-(6-hydroxy-6-methyl-1,4-oxazepan-4-yl)-2-({[3-(3,4,5-trifluorophenyl)-2,3,5,6,7,7a-hexahydro-1H-pyrrolizin-7a-yl]methyl}oxy)quinazolin-7-yl]benzo[b]thiophene-3-carbonitrile] came in with an AUC of 20953 ng·h/mL and a peak concentration (Cmax) of 5124 ng/mL. Moreover, in data set [2], the “inhibitory effects on human colon cancer GP2D mouse xenograft tumors” value is “significant inhibitory effects” and the “Tumor volume inhibition rate (TGI)” value amounted to 86.7%. The IC50 in data set [3] is 20.6 nM. For the same compound, in data set [4] (Sprague-Dawley (SD)), the exposure (AUC) stood at 11300 ng·h/mL and the peak level (Cmax) was 1030 ng/mL. Further, the F in data set [4] was 21.5%. Further, in data set [5], the “inhibitory effects on human ovarian cancer RKN mouse xenograft tumors” value is on record as “significant inhibitory effects” and the “Tumor volume inhibition rate (TGI)” value came out at 116%.

(Values after patent EP4778933A1 (Chengdu Hyperway Pharmaceuticals Co., Ltd., priority 2023, dated 2025).)
